Source: patent US8163724B2, “Glucocorticosteroids, processes for their preparation, pharmaceutical compositions containing them and their use in therapy” (AstraZeneca AB, priority 2007, dated 2012)

Molecular target: T1, recombinant human GR (Homo sapiens, UniProt P04150)
T1 construct: purchased Panvera/Invitrogen P2812 (kit P2893)
T1 sequence (P04150 1-777): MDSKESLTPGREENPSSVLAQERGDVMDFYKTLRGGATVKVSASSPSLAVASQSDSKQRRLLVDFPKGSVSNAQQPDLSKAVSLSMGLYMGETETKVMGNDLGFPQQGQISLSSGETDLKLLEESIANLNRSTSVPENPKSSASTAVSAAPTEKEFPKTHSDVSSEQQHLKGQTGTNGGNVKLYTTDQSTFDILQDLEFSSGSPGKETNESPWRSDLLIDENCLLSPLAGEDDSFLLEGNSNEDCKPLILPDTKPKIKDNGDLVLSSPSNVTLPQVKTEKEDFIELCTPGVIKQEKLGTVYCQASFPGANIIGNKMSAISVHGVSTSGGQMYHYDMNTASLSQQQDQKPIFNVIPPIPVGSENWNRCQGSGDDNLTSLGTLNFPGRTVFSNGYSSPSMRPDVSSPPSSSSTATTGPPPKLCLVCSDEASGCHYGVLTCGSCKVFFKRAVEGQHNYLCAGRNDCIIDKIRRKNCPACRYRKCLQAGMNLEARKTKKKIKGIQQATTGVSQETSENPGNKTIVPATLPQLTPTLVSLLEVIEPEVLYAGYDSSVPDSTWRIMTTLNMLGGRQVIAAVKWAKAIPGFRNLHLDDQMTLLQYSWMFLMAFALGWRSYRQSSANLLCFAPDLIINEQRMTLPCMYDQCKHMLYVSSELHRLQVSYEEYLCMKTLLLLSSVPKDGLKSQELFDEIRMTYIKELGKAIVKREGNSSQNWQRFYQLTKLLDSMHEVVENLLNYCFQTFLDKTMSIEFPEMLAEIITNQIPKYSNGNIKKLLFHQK
Test: Human Glucocorticoid Receptor (GR) Assay (fluorescence polarization, Panvera/Invitrogen kit)
Type: binding
Conditions: fluorescence polarization; GS Red tracer; 2 hours at room temperature; 100% control 10 μM Dexamethasone; read-out: Inhibition of GR binding, IC50
How it was run: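 Fluorescence polarization competition with recombinant GR and GS Red fluorescent ligand plus stabilizing peptide and DTT in potassium phosphate/sodium molybdate/EDTA buffer with DMSO. Incubated 2 hours at room temperature in the dark; 0% control DMSO, 100% control 10 μM dexamethasone.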

Row | Structure (SMILES) | IC50
1 | CSC(=O)[C@@]1(OC(=O)[C@H]2CCCO2)CC[C@H]2[C@@H]3CCC4=Cc5c(cnn5-c5ccc(F)nc5)C[C@]4(C)[C@H]3[C@@H](O)C[C@@]21C [Example 188, (1R,3aS,3bS,10aR,10bS,11S,12aS)-7-(6-Fluoropyridin-3-yl)-11-hydroxy-10a,12a-dimethyl-1-[(methylsulfanyl)carbonyl]-1,2,3,3a,3b,4,5,7,10,10a,10b,11,12,12a-tetradecahydrocyclopenta[5,6]naphtho[1,2]-indazol-1-yl (2R)-tetrahydrofuran-2-carboxylate] | 1.2 nM
2 | C[C@]12Cc3cnn(-c4cnccn4)c3C=C1CC[C@@H]1[C@@H]2[C@@H](O)C[C@@]2(C)[C@H]1CC[C@]2(OC(=O)C1CC1)C(=O)SCC#N [Example 189, (1R,3aS,3bS,10aR,10bS,11S,12aS)-1-{[(Cyanomethyl)sulfanyl]carbonyl}-11-hydroxy-10a,12a-dimethyl-7-pyrazin-2-yl-1,2,3,3a,3b,4,5,7,10,10a,10b,11,12,12a-tetradecahydrocyclopenta[5,6]naphtho[1,2-f]indazol-1-yl cyclopropanecarboxylate] | 5 nM
3 | C[C@]12Cc3cnn(-c4cnccn4)c3C=C1CC[C@@H]1[C@@H]2[C@@H](O)C[C@@]2(C)[C@H]1CC[C@]2(OC(=O)C1CC1)C(=O)SCCO [Example 190, (1R,3aS,3bS,10aR,10bS,11S,12aS)-11-Hydroxy-{[(2-hydroxyethyl)sulfanyl]carbonyl}-10a,12a-dimethyl-7-pyrazin-2-yl-1,2,3,3a,3b,4,5,7,10,10a,10b,11,12,12a-tetradecahydrocyclopenta[5,6]naphtho[1,2-f]indazol-1-yl cyclopropane carboxylate] | 3.7 nM
4 | C[C@]12Cc3cnn(-c4ccc(F)cc4)c3C=C1CC[C@H]1[C@@H]3CC[C@](OC(=O)c4ccco4)(C(=O)SCC#N)[C@@]3(C)C[C@H](O)[C@@]12F [Example 193, (1R,3aS,3bS,10aS,10bR,11S,12aS)-1-{[(Cyanomethyl)sulfanyl]carbonyl}-10b-fluoro-7-(4-fluorophenyl)-11-hydroxy-10a,12a-dimethyl-1,2,3,3a,3b,4,5,7,10,10a,11,12,12a-tetradecahydrocyclopenta[5,6]naphtho[1,2-f]indazol-1-yl furan-2-carboxylate] | 3.3 nM
5 | C[C@]12Cc3cnn(-c4ccc(F)cc4)c3C=C1CC[C@H]1[C@@H]3CC[C@](OC(=O)c4ccco4)(C(=O)SCF)[C@@]3(C)C[C@H](O)[C@@]12F [Example 194, (1R,3aS,3bS,10aS,10bR,11S,12aS)-1-{[(Fluoromethyl)sulfanyl]carbonyl}-10b-fluoro-7-(4-fluorophenyl)-11-hydroxy-10a,12a-dimethyl-1,2,3,3a,3b,4,5,7,10,10a,10b,11,12,12a-tetradecahydrocyclopenta[5,6]naphtho[1,2-f]indazol-1-yl furan-2-carboxylate] | 2.3 nM
6 | C[C@]12Cc3cnn(-c4ccc(F)cc4)c3C=C1CC[C@H]1[C@@H]3CC[C@](OC(=O)C4CC4)(C(=O)SCC#N)[C@@]3(C)C[C@H](O)[C@@]12F [Example 195, (1R,3aS,3bS,10aS,10bR,11S,12aS)-1-{[(Cyanomethyl)sulfanyl]carbonyl}-10b-fluoro-7-(4-fluorophenyl)-11-hydroxy-10a,12a-dimethyl-1,2,3,3a,3b,4,5,7,10,10a,10b,11,12,12a-tetradecahydrocyclopenta[5,6]naphtho[1,2]-indazol-1-yl cyclopropanecarboxylate] | 4.7 nM
7 | C[C@]12Cc3cnn(-c4ccc(F)cc4)c3C=C1CC[C@H]1[C@@H]3CC[C@](OC(=O)C4CC4)(C(=O)SCF)[C@@]3(C)C[C@H](O)[C@@]12F [Example 196, (1R,3aS,3bS,10aS,10bR,11S,12aS)-1-{[(Fluoromethyl)sulfanyl]carbonyl}-10b-fluoro-7-(4-fluorophenyl)-11-hydroxy-10a,12a-dimethyl-1,2,3,3a,3b,4,5,7,10,10a,10b,11,12,12a-tetradecahydrocyclopenta[5,6]naphtho[1,2-f]indazol-1-yl cyclopropanecarboxylate] | 14 nM
8 | COCC(=O)O[C@]1(C(=O)SCC#N)CC[C@H]2[C@@H]3CCC4=Cc5c(cnn5-c5ccc(F)cc5)C[C@]4(C)[C@@]3(F)[C@@H](O)C[C@@]21C [Example 197, (1R,3aS,3bS,10aS,10bR,11S,12aS)-1-{[(Cyanomethyl)sulfanyl]carbonyl}-10b-fluoro-7-(4-fluorophenyl)-11-hydroxy-10a,12a-dimethyl-1,2,3,3a,3b,4,5,7,10,10a,10b,11,12,12a-tetradecahydrocyclopenta[5,6]naphtho[1,2-f]indazol-1-yl methoxyacetate] | 3.3 nM
9 | COCC(=O)O[C@]1(C(=O)SCF)CC[C@H]2[C@@H]3CCC4=Cc5c(cnn5-c5ccc(F)cc5)C[C@]4(C)[C@@]3(F)[C@@H](O)C[C@@]21C [Example 198, (1R,3aS,3bS,10aS,10bR,11S,12aS)-1-{[(Fluoromethyl)sulfanyl]carbonyl}-10b-fluoro-7-(4-fluorophenyl)-11-hydroxy-10a,12a-dimethyl-1,2,3,3a,3b,4,5,7,10,10a,10b,11,12,12a-tetradecahydrocyclopenta[5,6]naphtho[1,2-f]indazol-1-yl methoxyacetate] | 2.6 nM
10 | CCC(=O)O[C@]1(C(=O)SCC#N)CC[C@H]2[C@@H]3CCC4=Cc5c(cnn5-c5ccc(F)cc5)C[C@]4(C)[C@@]3(F)[C@@H](O)C[C@@]21C [Example 199, (1R,3aS,3bS,10aS,10bR,11S,12aS)-1-{[(Cyanomethyl)sulfanyl]carbonyl}-10b-fluoro-7-(4-fluorophenyl)-11-hydroxy-10a,12a-dimethyl-1,2,3,3a,3b,4,5,7,10,10a,10b,11,12,12a-tetradecahydrocyclopenta[5,6]naphtho[1,2-f]indazol-1-yl propanoate] | 4.6 nM
11 | CCC(=O)O[C@]1(C(=O)SCF)CC[C@H]2[C@@H]3CCC4=Cc5c(cnn5-c5ccc(F)cc5)C[C@]4(C)[C@@]3(F)[C@@H](O)C[C@@]21C [Example 200, (1R,3aS,3bS,10aS,10bR,11S,12aS)-1-{[(Fluoromethyl)sulfanyl]carbonyl}-10b-fluoro-7-(4-fluorophenyl)-11-hydroxy-10a,12a-dimethyl-1,2,3,3a,3b,4,5,7,10,10a,10b,11,12,12a-tetradecahydrocyclopenta[5,6]naphtho[1,2-f]indazol-1-yl propanoate] | 14 nM
12 | C[C@]12Cc3cnn(-c4ccc(F)cc4)c3C=C1CC[C@H]1[C@@H]3CC[C@](OC(=O)c4cocn4)(C(=O)SCC#N)[C@@]3(C)C[C@H](O)[C@@]12F [Example 201, (1R,3aS,3bS,10aS,10bR,11S,12aS)-1-{[(Cyanomethyl)sulfanyl]-carbonyl}-10b-fluoro-7-(4-fluorophenyl)-11-hydroxy-10a,12a-dimethyl-1,2,3,3a,3b,4,5,7,10,10a,10b,11,12,12a-tetradecahydrocyclopenta[5,6]naphtho[1,2-f]indazol-1-yl 1,3-oxazole-4-carboxylate] | 5.3 nM
13 | C[C@]12Cc3cnn(-c4ccc(F)cc4)c3C=C1CC[C@H]1[C@@H]3CC[C@](OC(=O)c4cocn4)(C(=O)SCF)[C@@]3(C)C[C@H](O)[C@@]12F [Example 202, (1R,3aS,3bS,10aS,10bR,11S,12aS)-1-{[(Fluoromethyl)sulfanyl]carbonyl}-10b-fluoro-7-(4-fluorophenyl)-11-hydroxy-10a,12a-dimethyl-1,2,3,3a,3b,4,5,7,10,10a,10b,11,12,12a-tetradecahydrocyclopenta[5,6]naphtho[1,2-f]indazol-1-yl 1,3-oxazole-4-carboxylate] | 5.8 nM
14 | CCC(=O)O[C@]1(C(=O)SCC#N)CC[C@H]2[C@@H]3CCC4=Cc5c(cnn5-c5ccc(F)nc5)C[C@]4(C)[C@@]3(F)[C@@H](O)C[C@@]21C [Example 203, (1R,3aS,3bS,10aS,10bR,11S,12aS)-1-{[(Cyanomethyl)sulfanyl]carbonyl}-10b-fluoro-7-(6-fluoropyridin-3-yl)-11-hydroxy-10a,12a-dimethyl-1,2,3,3a,3b,4,5,7,10,10a,10b,11,12,12a-tetradecahydrocyclopenta[5,6]naphtho[1,2-f]indazol-1-yl propanoate] | 2.3 nM
15 | CCC(=O)O[C@]1(C(=O)SCF)CC[C@H]2[C@@H]3CCC4=Cc5c(cnn5-c5ccc(F)nc5)C[C@]4(C)[C@@]3(F)[C@@H](O)C[C@@]21C [Example 204, (1R,3aS,3bS,10aS,10bR,11S,12aS)-1-{[(Fluoromethyl)sulfanyl]carbonyl}-10b-fluoro-7-(6-fluoropyridin-3-yl)-11-hydroxy-10a,12a-dimethyl-1,2,3,3a,3b,4,5,7,10,10a,10b,11,12,12a-tetradecahydrocyclopenta[5,6]naphtho[1,2-f]indazol-1-yl propanoate] | 3.3 nM
